Laboratory results: patent US5401761A, “Thiazolidinedione hypoglycemic agents” (Pfizer, Inc., priority 1993, dated 1995)

Test system: OB/OB MOUSE
Assay: Hypoglycemic activity in the ob/ob mouse
Assay type: in vivo, mouse (C57 BL/6J-ob/ob)
Details: for ED50 (Present Invention, X = H): concentration required to give hypoglycemic activity equivalent to 50% of the positive control / ED50 (EP 299620A, X = OH): concentration required to give hypoglycemic activity equivalent to 50% of the positive control: ob/ob mouse, dosed daily for five days, positive control ciglitazone 50 mg/kg, 7200 min
Description: The present compounds of the formula (I) are readily adapted to clinical use as hypoglycemic or hypocholesterolemic agents. The activity required for the former clinical use is defined by the test for hypoglycemic effect in ob/ob mice by the following procedure:
Five to eight week old C57 BL/6J-ob/ob mice (obtained from Jackson Laboratory, Bar Harbor, Me.) were housed five per cage under standard animal care practices. After a one week acclimation period, the animals were weighed and 25 microliters of blood was collected via an ocular bleed prior to any treatment. The blood sample was immediately diluted 1:5 with saline containing 2.5 mg/ml sodium fluoride and 2% sodium heparin, and held on ice for metabolite analysis. […] Bull., vol. […] All drugs were administered in a vehicle consisting of 0.25% w/v methyl cellulose. On day 5, the animals were weighed again and bled (via the ocular route) for blood metabolite levels. The freshly collected samples were centrifuged for two minutes at […] at room temperature. The supernatant was analyzed for glucose, for example, by the ABA 200 Bichromatic Analyzer™*, using the A-gent™^1 glucose UV reagent system*^2 (hexokinase method) using 20, 60 and 100 mg/dl standards. Plasma glucose was then calculated by the equation,
Test compounds are reported in terms of % glucose normalization. For example, a glucose level which is the same as the positive control is reported as 100%.

Cc1oc(C2CCCCC2)nc1Cc1cc2cc(CC3SC(=O)NC3=O)ccc2o1 (stereo not drawn) [cyclohexyl, X = H, 5-[(2-(2-cyclohexyl-5-methyl-4-oxazolyl)methyl)-5-benzofuranylmethyl]-2,4-thiazolidinedione]
ED50 (Present Invention, X = H): concentration required to give hypoglycemic activity equivalent to 50% of the positive control: 0.05 mg/kg

Cc1oc(-c2cccc(F)c2)nc1Cc1cc2cc(CC3SC(=O)NC3=O)ccc2o1 (stereo not drawn) [m-fluorophenyl, X = H, 5-[(2-(2-(3-fluorophenyl)-5-methyl-4-oxazolyl)methyl)-5-benzofuranylmethyl]-2,4-thiazolidinedione]
ED50 (Present Invention, X = H): concentration required to give hypoglycemic activity equivalent to 50% of the positive control: 0.05 mg/kg

Cc1oc(-c2cccc(F)c2)nc1C(O)c1cc2cc(CC3SC(=O)NC3=O)ccc2o1 (stereo not drawn) [m-fluorophenyl, X = OH, reference compound]
ED50 (EP 299620A, X = OH): concentration required to give hypoglycemic activity equivalent to 50% of the positive control: 0.50 mg/kg

Cc1cccc(-c2nc(Cc3cc4cc(CC5SC(=O)NC5=O)ccc4o3)c(C)o2)c1 (stereo not drawn) [m-methylphenyl, X = H, 5-[(2-(5-methyl-2-(3-methylphenyl)-4-oxazolyl)-methyl)-5-benzofuranylmethyl]2,4-thiazolidinedione]
ED50 (Present Invention, X = H): concentration required to give hypoglycemic activity equivalent to 50% of the positive control: < 0.005 mg/kg

Cc1cccc(-c2nc(C(O)c3cc4cc(CC5SC(=O)NC5=O)ccc4o3)c(C)o2)c1 (stereo not drawn) [m-methylphenyl, X = OH, reference compound]
ED50 (EP 299620A, X = OH): concentration required to give hypoglycemic activity equivalent to 50% of the positive control: 0.05 to 0.1 mg/kg

Cc1oc(-c2ccccc2F)nc1Cc1cc2cc(CC3SC(=O)NC3=O)ccc2o1 (stereo not drawn) [o-fluorophenyl, X = H, 5-[(2-(2-(2-fluorophenyl)-5-methyl-4-oxazolyl)methyl)-5-benzofuranylmethyl]-2,4-thiazolidinedione]
ED50 (Present Invention, X = H): concentration required to give hypoglycemic activity equivalent to 50% of the positive control: 0.01 mg/kg

Cc1oc(-c2ccccc2F)nc1C(O)c1cc2cc(CC3SC(=O)NC3=O)ccc2o1 (stereo not drawn) [o-fluorophenyl, X = OH, reference compound]
ED50 (EP 299620A, X = OH): concentration required to give hypoglycemic activity equivalent to 50% of the positive control: 0.50 mg/kg

Cc1ccccc1-c1nc(Cc2cc3cc(CC4SC(=O)NC4=O)ccc3o2)c(C)o1 (stereo not drawn) [o-methylphenyl, X = H]
ED50 (Present Invention, X = H): concentration required to give hypoglycemic activity equivalent to 50% of the positive control: 0.05 mg/kg

Cc1ccccc1-c1nc(C(O)c2cc3cc(CC4SC(=O)NC4=O)ccc3o2)c(C)o1 (stereo not drawn) [o-methylphenyl, X = OH, reference compound]
ED50 (EP 299620A, X = OH): concentration required to give hypoglycemic activity equivalent to 50% of the positive control: > 1 mg/kg

Cc1oc(-c2ccc(Cl)cc2)nc1Cc1cc2cc(CC3SC(=O)NC3=O)ccc2o1 (stereo not drawn) [p-chlorophenyl, X = H, 5-[(2-(2-(4-chlorophenyl)-5-methyl-4-oxazolyl)methyl)-5-benzofuranylmethyl]-2,4thiazolidinedione]
ED50 (Present Invention, X = H): concentration required to give hypoglycemic activity equivalent to 50% of the positive control: 0.05 mg/kg

Cc1ccc(-c2nc(Cc3cc4cc(CC5SC(=O)NC5=O)ccc4o3)c(C)o2)cc1 (stereo not drawn) [p-methylphenyl, X = H, 5-[(2-(5-methyl-2-(4-methylphenyl)-4-oxazolyl)-methyl)-5-benzofuranylmethyl]-2,4-thiazolidinedione]
ED50 (Present Invention, X = H): concentration required to give hypoglycemic activity equivalent to 50% of the positive control: 0.05 mg/kg

Cc1oc(-c2ccccc2)nc1Cc1cc2cc(CC3SC(=O)NC3=O)ccc2o1 (stereo not drawn) [phenyl, X = H, 5-[(2-(5-Methyl-2-phenyl-4-oxazolyl)methyl)-5-benzofuranylmethyl]-2,4-thiazolidinedione]
ED50 (Present Invention, X = H): concentration required to give hypoglycemic activity equivalent to 50% of the positive control: 0.01 mg/kg

Cc1oc(-c2ccccc2)nc1C(O)c1cc2cc(CC3SC(=O)NC3=O)ccc2o1 (stereo not drawn) [phenyl, X = OH, 5-[(2-(5-Methyl-2-phenyl-4-oxazolyl)hydroxymethyl)-5-benzofuranylmethyl]-2,4-thiazolidinedione, reference compound]
ED50 (EP 299620A, X = OH): concentration required to give hypoglycemic activity equivalent to 50% of the positive control: 0.25 mg/kg

CC1(COc2ccc(CC3SC(=O)NC3=O)cc2)CCCCC1 (stereo not drawn) [positive control, ciglitazone, reference compound]
glucose level of positive control animals (positive control (50 mg/kg) of ciglitazone, daily for five days, vehicle e.g. 250 mg/dl): ~130 mg/dL

Cc1oc(C(C)(C)C)nc1Cc1cc2cc(CC3SC(=O)NC3=O)ccc2o1 (stereo not drawn) [tert-butyl, X = H, 5-[(2-(5-methyl-2-(1,1-dimethylethyl)-4-oxazolyl)-methyl)-5-benzofuranylmethyl]-2,4-thiazolidinedione]
ED50 (Present Invention, X = H): concentration required to give hypoglycemic activity equivalent to 50% of the positive control: 0.10 mg/kg
